The source of these data is patent publication US20090082341A1 (SYNOSIA THERAPEUTICS, priority 2007, published 2009).

Entries after “also recorded” stand apart in the source; their conditions may differ.

In one assay the test system is female Wistar rats. In words: Swim stress test. The class given is in vivo, rat. The settings on record: 3, 10 and 30 mg/kg po; vs controls. The method, then:
The swim stress test relies on the principle that when placed in water, rodents after an initial period of vigorous activity, adopt a characteristic immobile posture making only the minimal movements necessary to stay afloat. A reduction in the time of immobility is considered indicative of potential antidepressant-like properties of a particular drug.
The tricyclic antidepressant desipramine was used as reference drug at 100 mg/kg po. Data are mean±SEM based on 8 animals per group.
The swim stress test relies on the principle that when placed in water, rodents after an initial period of vigorous activity adopt a characteristic immobile posture, making only the minimal movements necessary to stay afloat. A reduction in the time of immobility is considered indicative of potential antidepressant-like properties of a particular drug (Porsolt R D et al. Behavioural despair in rats: a new model sensitive to antidepressant treatments. Eur. J. Pharmacol. 1978; 47:379-391). […]
Naïve rats were individually forced to swim inside vertical plexiglass cylinders (height: 40 cm; diameter: 17.5 cm) containing 15 cm of water maintained at 23-24° C. […] They were replaced in the cylinders 24 h later and the total duration of immobility was measured during a 5-min test. […]
Data were analyzed using an unpaired Student's t-test. […]

The next assay concerns male Wistar rats. As to the kind of experiment: Passive avoidance test, scopolamine-induced amnesia. Type of assay: in vivo, rat. From the text:
This test relies on training rodents to avoid an aversive event (electric shock) by curbing a normal behavior, and at specified intervals after training, testing the animals for retention of such learning.
Adult rats were trained in a step-down test to avoid foot shock by remaining on a plastic platform. […] Amnesia was induced by administering scopolamine subcutaneously (sc) given immediately post-training.
The protocol to generate FIG. 6 data are as follows: Adult rats (n=16/dose group) were trained to avoid foot shock by remaining on a plastic platform in a step-down test. […] Amnesia was induced by administration of scopolamine sc at 1 mg/kg immediately post-training. Retention, measured as the % of rats with correct responses, was assessed 2 h post-training.
Male adult Wistar rats (HanBrl: WIST (SPF); RCC Füllinsdorf) weighing approximately 94-113 g were used. The animals were housed in groups of four in Macrolon Type 3 cages (810 cm^2) with sawdust bedding. Tap water and standard laboratory chow (Ratte Alleinfutter, extrudat No 3436; Provimikliba Kaiseraugst, Switzerland) were continuously available except during testing. The animal quarters were maintained on a 12:12 hr light-dark cycle with light onset at 6 a.m. […]
Two hours after the training and the post-training treatment, each rat was evaluated for retention of the passive avoidance response in the retention test. […]

For the compound `COc1ccc(N2CCOCC2)c2sc(NC(=O)N3CCC(C)(O)CC3)nc12` [4-hydroxy-4-methyl-piperidine-1-carboxylic acid (4-methoxy-7-morpholin-4-yl-benzothiazol-2-yl)-amide], the “mean total duration of immobility” value in the assay on female Wistar rats was “dose-dependent decrease; also recorded: significantly and dose-dependently decreased”. Besides, the “proportion of scopolamine-treated animals exhibiting passive avoidance retention (correct responses)” value with male Wistar rats (100 mg/kg po + scopolamine 1 mg/kg sc, 2 h post-training, scopolamine + vehicle 12.5%) was 43.75%. Also, the “reversal of the scopolamine-induced retention deficit” value with male Wistar rats (3, 10, 30 and 100 mg/kg po immediately post-training) was “dose-dependent and statistically significant at the highest dose tested (100 mg/kg po); also recorded: dose-dependent reversal”.
